Where two headings read alike, the source gives them in different places.
Key:
Enterobacterales = test: MIC, broth microdilution, CDC/FDA Antibiotic Resistance Isolate Bank (Example 7, Tables 8, 11, 12); assay type: cell-based; conditions: for MIC50: carbapenemase-producing Enterobacterales, read-out: MIC50
A. baumannii = test: MIC, broth microdilution, CDC/FDA Antibiotic Resistance Isolate Bank (Example 7, Tables 9, 13, 14); assay type: cell-based, Acinetobacter baumannii; conditions: for MIC: read-out: MIC
CRE and CPE strains = test: MIC, broth microdilution, standard strains and Japanese clinical isolates (Example 5, Table 4 continued; organism of each KUB strain not given); assay type: cell-based
[1] = MIC distribution, metallo-β-lactamase-producing A. baumannii, inhibitor µg/mL in parentheses

CC(C)(O/N=C(\C(=O)N[C@@H]1C(=O)N2C(C(=O)[O-])=C(C[N+]3(CCNC(=O)c4ccc(O)c(O)c4Cl)CCCC3)CS[C@H]12)c1csc(N)n1)C(=O)O [Cefiderocol, cefiderocol]
≤ 0.06 µg/mL: MIC (Enterobacterales; Kluyvera ascorbata, KUB No. 5641, AR Bank # 144, read-out: MIC) | MIC (Enterobacterales; Morganella morganii, KUB No. 5630, AR Bank # 133, read-out: MIC) | MIC (Enterobacterales; Proteus mirabilis, KUB No. 5652, AR Bank # 155, read-out: MIC) | MIC (Enterobacterales; Proteus mirabilis, KUB No. 5773, AR Bank # 377, read-out: MIC) | MIC (Enterobacterales; Providencia rettgeri, KUB No. 5579, AR Bank # 82, read-out: MIC) | MIC (Enterobacterales; Serratia marcescens, KUB No. 5588, AR Bank # 91, read-out: MIC) | MIC (A. baumannii; Acinetobacter baumannii, A. baumannii KUB No. 5567, AR Bank #70, OXA-58, OXA-100) | MIC (A. baumannii; Acinetobacter baumannii, KUB No. 5737, AR Bank #304) | MIC (CRE and CPE strains; strain KUB3150, carbapenemase gene OXA-48, read-out: MIC)
≤0.06 to 16 µg/mL: MICrange (A. baumannii; 55 isolates of A. baumannii)
4 µg/mL: MIC (A. baumannii; Acinetobacter baumannii, A. baumannii KUB No. 5575, AR Bank #78, OXA-71) | MIC (A. baumannii; Acinetobacter baumannii, A. baumannii KUB No. 5710, AR Bank #277, OXA-24, OXA-65) | MIC (A. baumannii; Acinetobacter baumannii, KUB No. 5735, AR Bank #302) | MIC (A. baumannii; Acinetobacter baumannii, KUB No. 5742, AR Bank #309) | MIC90 (A. baumannii; Acinetobacter baumannii, 55 isolates of A. baumannii, read-out: MIC90) | MIC (CRE and CPE strains; strain KUB3154, carbapenemase gene KPC-2, read-out: MIC)
8 µg/mL: MIC (A. baumannii; Acinetobacter baumannii, A. baumannii KUB No. 5709, AR Bank #276, no carbapenemase genes (-)) | MIC (A. baumannii; Acinetobacter baumannii, KUB No. 5732, AR Bank #299) | MIC (CRE and CPE strains; strain KUB3157, carbapenemase gene NDM-1)
< 0.06 µg/mL: MIC (Enterobacterales; Klebsiella pneumoniae, KUB No. 5639, AR Bank # 142, read-out: MIC) | MIC (Enterobacterales; Proteus mirabilis, KUB No. 5653, AR Bank # 156, read-out: MIC) | MIC (Enterobacterales; Serratia marcescens, KUB No. 5620, AR Bank # 123, read-out: MIC)
0.12 µg/mL: MIC (Enterobacterales; Serratia marcescens, KUB No. 5618, AR Bank # 121, read-out: MIC) | MIC (Enterobacterales; Serratia marcescens, KUB No. 5619, AR Bank # 122, read-out: MIC) | MIC (Enterobacterales; Serratia marcescens, KUB No. 5627, AR Bank # 130, read-out: MIC) | MIC (A. baumannii; Acinetobacter baumannii, A. baumannii KUB No. 5599, AR Bank #102, OXA-66) | MIC (A. baumannii; Acinetobacter baumannii, A. baumannii KUB No. 5706, AR Bank #273, OXA-23, OXA-66) | MIC (A. baumannii; Acinetobacter baumannii, A. baumannii KUB No. 5707, AR Bank #274, OXA-66, OXA-72) | MIC (A. baumannii; Acinetobacter baumannii, A. baumannii KUB No. 5714, AR Bank #281, OXA-82) | MIC (A. baumannii; Acinetobacter baumannii, KUB No. 5722, AR Bank #259) | MIC (A. baumannii; Acinetobacter baumannii, KUB No. 5730, AR Bank #297) | MIC (A. baumannii; Acinetobacter baumannii, KUB No. 5736, AR Bank #303) | MIC (A. baumannii; Acinetobacter baumannii, KUB No. 5740, AR Bank #307) | MIC (CRE and CPE strains; strain KUB3164, carbapenemase gene IMP-6)
0.25 µg/mL: MIC (Enterobacterales; Klebsiella pneumoniae, KUB No. 5642, AR Bank # 145, read-out: MIC) | MIC (Enterobacterales; Klebsiella pneumoniae, KUB No. 5643, AR Bank # 146, read-out: MIC) | MIC (Enterobacterales; Klebsiella pneumoniae, KUB No. 5649, AR Bank # 152, read-out: MIC) | MIC (Enterobacterales; Klebsiella pneumoniae, KUB No. 5657, AR Bank # 160, read-out: MIC) | MIC (Enterobacterales; Klebsiella pneumoniae, KUB No. 5759, AR Bank # 363, read-out: MIC) | MIC (Enterobacterales; Klebsiella pneumoniae, Klebsiella pneumoniae KUB No. 5797, AR Bank #453, read-out: MIC) | MIC (Enterobacterales; Klebsiella pneumoniae, Klebsiella pneumoniae KUB No. 5809, AR Bank #504, read-out: MIC) | MIC (Enterobacterales; Proteus mirabilis, KUB No. 5556, AR Bank# 59, read-out: MIC) | MIC (Enterobacterales; Serratia marcescens, KUB No. 5596, AR Bank # 99, read-out: MIC) | MIC50 (Enterobacterales; Serine carbapenemase (N=61)) | MIC (A. baumannii; Acinetobacter baumannii, A. baumannii KUB No. 5712, AR Bank #279, OXA-23, OXA-66) | MIC (A. baumannii; Acinetobacter baumannii, A. baumannii KUB No. 5713, AR Bank #280, OXA-66) | MIC (A. baumannii; Acinetobacter baumannii, A. baumannii KUB No. 5716, AR Bank #283, OXA-23, OXA-66) | MIC (A. baumannii; Acinetobacter baumannii, A. baumannii KUB No. 5717, AR Bank #284, OXA-24, OXA-65) | MIC (A. baumannii; Acinetobacter baumannii, KUB No. 5721, AR Bank #288) | MIC (A. baumannii; Acinetobacter baumannii, KUB No. 5733, AR Bank #300) | MIC (A. baumannii; Acinetobacter baumannii, KUB No. 5738, AR Bank #305) | MIC (A. baumannii; Acinetobacter baumannii, KUB No. 5741, AR Bank #308) | MIC (A. baumannii; Acinetobacter baumannii, KUB No. 5745, AR Bank #312)
16 µg/mL: MIC (A. baumannii; Acinetobacter baumannii, A. baumannii KUB No. 5580, AR Bank #83, OXA-23, OXA-69, NDM-1)
1: Number of isolates at MIC 16 µg/mL (A. baumannii; [1])
0.5 µg/mL: MIC (Enterobacterales; Klebsiella pneumoniae, KUB No. 5645, AR Bank # 148, read-out: MIC) | MIC (Enterobacterales; Klebsiella pneumoniae, KUB No. 5655, AR Bank # 158, read-out: MIC) | MIC (Enterobacterales; Klebsiella pneumoniae, Klebsiella pneumoniae KUB No. 5784, AR Bank #438, read-out: MIC) | MIC (Enterobacterales; Klebsiella pneumoniae, Klebsiella pneumoniae KUB No. 5810, AR Bank #505, read-out: MIC) | MIC (Enterobacterales; Klebsiella pneumoniae, Klebsiella pneumoniae KUB No. 5829, AR Bank #524, read-out: MIC) | MIC (Enterobacterales; Proteus mirabilis, KUB No. 5656, AR Bank # 159, read-out: MIC) | MIC (Enterobacterales; Serratia marcescens, Serratia marcescens KUB No. 5826, AR Bank #521, read-out: MIC) | MIC (A. baumannii; Acinetobacter baumannii, A. baumannii KUB No. 5598, AR Bank #101, OXA-24, OXA-65) | MIC (A. baumannii; Acinetobacter baumannii, A. baumannii KUB No. 5708, AR Bank #275, OXA-23, OXA-66) | MIC (A. baumannii; Acinetobacter baumannii, A. baumannii KUB No. 5711, AR Bank #278, OXA-23, OXA-66) | MIC (A. baumannii; Acinetobacter baumannii, A. baumannii KUB No. 5715, AR Bank #282, OXA-23, OXA-66) | MIC (A. baumannii; Acinetobacter baumannii, KUB No. 5719, AR Bank #286) | MIC (A. baumannii; Acinetobacter baumannii, KUB No. 5720, AR Bank #287) | MIC (A. baumannii; Acinetobacter baumannii, KUB No. 5723, AR Bank #290) | MIC (A. baumannii; Acinetobacter baumannii, KUB No. 5724, AR Bank #291) | MIC (A. baumannii; Acinetobacter baumannii, KUB No. 5725, AR Bank #292) | MIC (A. baumannii; Acinetobacter baumannii, KUB No. 5726, AR Bank #293) | MIC (A. baumannii; Acinetobacter baumannii, KUB No. 5727, AR Bank #294) | MIC (A. baumannii; Acinetobacter baumannii, KUB No. 5728, AR Bank #295) | MIC (A. baumannii; Acinetobacter baumannii, KUB No. 5729, AR Bank #296) | MIC (A. baumannii; Acinetobacter baumannii, KUB No. 5731, AR Bank #298) | MIC (A. baumannii; Acinetobacter baumannii, KUB No. 5744, AR Bank #311) | MIC50 (A. baumannii; Acinetobacter baumannii, 55 isolates of A. baumannii, read-out: MIC50)
1 µg/mL: MIC (Enterobacterales; Klebsiella pneumoniae, KUB No. 5640, AR Bank # 143, read-out: MIC) | MIC (Enterobacterales; Klebsiella pneumoniae, KUB No. 5650, AR Bank # 153, read-out: MIC) | MIC (Enterobacterales; Klebsiella pneumoniae, KUB No. 5757, AR Bank # 361, read-out: MIC) | MIC (Enterobacterales; Klebsiella pneumoniae, KUB No. 5772, AR Bank # 376, read-out: MIC) | MIC (Enterobacterales; Klebsiella pneumoniae, Klebsiella pneumoniae KUB No. 5828, AR Bank #523, read-out: MIC) | MIC (Enterobacterales; Salmonella enterica, Salmonella Senftenberg, KUB No. 5624, AR Bank # 127, read-out: MIC) | MIC50 (Enterobacterales; Metallo-β-lactamase (N = 47)) | MIC (A. baumannii; Acinetobacter baumannii, A. baumannii KUB No. 5718, AR Bank #285, OXA-24, OXA-65) | MIC (A. baumannii; Acinetobacter baumannii, KUB No. 5734, AR Bank #301) | MIC (A. baumannii; Acinetobacter baumannii, KUB No. 5739, AR Bank #306) | MIC (A. baumannii; Acinetobacter baumannii, KUB No. 5746, AR Bank #313) | MIC (CRE and CPE strains; strain KUB3151, carbapenemase gene IMP-1, read-out: MIC)
50.1 µg/mL: MIC (Enterobacterales; Serratia marcescens, KUB No. 5628, AR Bank # 131, read-out: MIC)
2 µg/mL: MIC (Enterobacterales; Klebsiella pneumoniae, KUB No. 5760, AR Bank # 364, read-out: MIC) | MIC (Enterobacterales; Klebsiella pneumoniae, Klebsiella pneumoniae KUB No. 5811, AR Bank #506, read-out: MIC) | MIC (Enterobacterales; Klebsiella pneumoniae, Klebsiella pneumoniae KUB No. 5812, AR Bank #507, read-out: MIC) | MIC (Enterobacterales; Klebsiella pneumoniae, Klebsiella pneumoniae KUB No. 5827, AR Bank #522, read-out: MIC) | MIC (Enterobacterales; Klebsiella pneumoniae, Klebsiella pneumoniae KUB No. 5830, AR Bank #525, read-out: MIC) | MIC (Enterobacterales; Proteus mirabilis, KUB No. 5775, AR Bank # 379, read-out: MIC) | MIC (Enterobacterales; Serratia marcescens, Serratia marcescens KUB No. 5822, AR Bank #517, read-out: MIC) | MIC (A. baumannii; Acinetobacter baumannii, A. baumannii KUB No. 5585, AR Bank #88, OXA-64, NDM-1) | MIC (A. baumannii; Acinetobacter baumannii, KUB No. 5743, AR Bank #310) | MIC80 (A. baumannii; Acinetobacter baumannii, 55 isolates of A. baumannii, read-out: MIC80) | MIC (CRE and CPE strains; strain KUB3149, carbapenemase gene NDM-1, read-out: MIC) | MIC (CRE and CPE strains; strain KUB3152, carbapenemase gene KPC-2, read-out: MIC)
≤0.0 µg/mL: MIC (Enterobacterales; Serratia marcescens, KUB No. 5621, AR Bank # 124)
2: Number of isolates at MIC 2 µg/mL (A. baumannii; [1])
